Results taken from patent US6521211B1, “Methods of imaging and treatment with targeted compositions” (Bristol-Myers Squibb Medical Imaging, Inc., priority 1995, dated 2003).

System: β-galactosidase gene (pSV β-gal)
Test: in vivo delivery of genetic material in rats, X-gal staining, with or without ultrasound
Set-up: species or system Sprague Dawley rats
Details: mixed with plasmid pSV β-gal, tail vein, 48 hours
Protocol: Plasmid pSV β-gal (Promega, Madison, Wiss.), which contains the β-galactosidase gene, and the cationic lipid compound prepared in Example 3 were combined by mixing. The resulting mixture was injected into each of three Sprague Dawley rats (rats (A), (B) and (C)) via the tail vein. Rat (A) was not subjected to ultrasound. Ultrasonic energy was applied to the inside of the hind leg during injection for each of rats (B) and (C). After 48 hours, the rats were euthanized and the tissues were removed. The tissues were fixed for 72 hours in 2% formalin, sliced thin and placed in an X-gal solution. After 16 hours at 37° C., the tissues were inspected.

SMILES: CCCCCCCCCCCCCCCCOC(=O)CN(CC[N+](C)(CC(=O)NCC[N+](C)(C)C)CC(=O)OCCCCCCCCCCCCCCCC)CC(=O)O (stereo not drawn) [Example 3, N,N′-bis (hexadecyloxycarbonylmethylene)-N-(β-N,N,N-trimethylammoniumethyl-aminocarbonylmethylene) -N-methyl-N′-(carboxymethylene)ethylenediamine diiodide]
- X-gal staining of tissue (transfection) (rat (A), no ultrasound): blue color which is indicative of general transfection
- X-gal staining of tissue (transfection) (rats (B) and (C), ultrasonic energy to inside of hind leg during injection): blue color only at the site where ultrasound energy was applied
